In article PMC10254045, “Elaboration of the Effective Multi-Target Therapeutic Platform for the Treatment of Alzheimer’s Disease Based on Novel Monoterpene-Derived Hydroxamic Acids” (International Journal of Molecular Sciences, 2023):

Target: T1, HDAC6 (Homo sapiens, UniProt Q9UBN7)
T1 construct: purchased Enzo Life Sciences
T1 sequence (Q9UBN7 1-1215): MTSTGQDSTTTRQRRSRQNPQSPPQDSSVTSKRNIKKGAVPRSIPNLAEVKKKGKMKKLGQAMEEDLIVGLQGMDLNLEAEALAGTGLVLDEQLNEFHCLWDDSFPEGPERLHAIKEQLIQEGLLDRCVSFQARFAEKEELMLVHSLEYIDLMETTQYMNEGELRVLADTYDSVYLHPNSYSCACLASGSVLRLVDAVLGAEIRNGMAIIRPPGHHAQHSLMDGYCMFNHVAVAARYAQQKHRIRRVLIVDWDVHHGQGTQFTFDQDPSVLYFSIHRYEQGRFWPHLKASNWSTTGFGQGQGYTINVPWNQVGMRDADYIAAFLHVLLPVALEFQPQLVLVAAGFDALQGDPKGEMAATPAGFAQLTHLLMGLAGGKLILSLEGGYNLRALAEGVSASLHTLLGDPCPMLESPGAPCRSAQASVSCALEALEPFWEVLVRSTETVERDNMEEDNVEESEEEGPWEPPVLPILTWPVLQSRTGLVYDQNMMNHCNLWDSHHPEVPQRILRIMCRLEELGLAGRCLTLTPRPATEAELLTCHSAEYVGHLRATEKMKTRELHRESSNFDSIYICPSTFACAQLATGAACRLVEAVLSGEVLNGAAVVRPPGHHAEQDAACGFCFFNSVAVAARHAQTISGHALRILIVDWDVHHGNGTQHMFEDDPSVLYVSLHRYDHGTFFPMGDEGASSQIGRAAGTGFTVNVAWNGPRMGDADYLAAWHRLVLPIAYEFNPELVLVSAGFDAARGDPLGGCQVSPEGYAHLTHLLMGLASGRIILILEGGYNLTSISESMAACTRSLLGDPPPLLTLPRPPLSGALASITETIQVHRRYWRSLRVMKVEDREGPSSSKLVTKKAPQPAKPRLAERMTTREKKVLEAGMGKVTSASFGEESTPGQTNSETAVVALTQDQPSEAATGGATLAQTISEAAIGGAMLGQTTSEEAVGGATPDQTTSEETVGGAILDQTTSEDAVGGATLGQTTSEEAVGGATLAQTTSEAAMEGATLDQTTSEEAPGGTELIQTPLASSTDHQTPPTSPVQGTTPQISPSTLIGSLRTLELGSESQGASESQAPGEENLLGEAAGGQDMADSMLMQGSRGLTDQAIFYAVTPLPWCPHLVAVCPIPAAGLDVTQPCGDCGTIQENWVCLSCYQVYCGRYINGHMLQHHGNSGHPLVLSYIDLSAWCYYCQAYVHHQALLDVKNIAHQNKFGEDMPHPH
Assay: Fluorimetric measurement of HDAC6 activity (FLUOR DE LYS kit)
Format: biochemical
Conditions: Table 1; read-out: HDAC6-Inhibitory Effect, IC50

- IC50: 3.85 ± 0.24 µM
Compound: C=C(C)[C@@H]1CC=C(CNC(=O)/C=C/c2ccc(C(=O)NO)cc2)CC1 [Compound 35a, (S,E)-N-hydroxy-4-(3-oxo-3-(((4-(prop-1-en-2-yl)cyclohex-1-en-1-yl)methyl)amino)prop-1-en-1-yl)benzamide]
